# Literature values in US20160271257A1, “Low Molecular Weight Immune-Modulators As Adjuvants for Specific Immunotherapy” (PLS-DESIGN GMBH, priority 2013, published 2016).
# “Also recorded” adds a separate entry of the source. Read-outs that look alike come from different tables or passages of the source. Ends that are not written are not given here.
# Experiments:
# [1] = mouse, in vivo
# [2] = i.p. 5 μg/kg every 2 days
# [3] = individuals not adhering to dietary calcium restriction
# [4] = 10 ng with 100 μg OVA
# [5] = not given; remark: listed apart in the source
# [6] = not given; remark: listed apart in the source
# NF-kappa B translocation = settings: read-out: concentration for 50% inhibition of NF-kappa B translocation
# [7] = test system: isolated rat cardiomyocytes; settings: for glutathione repletion and unmasking of TNFR2-mediated effects (reproducing in vivo NAC treatment): incubation 2-3 hours, 50 μmol/L GSM, 50 μmol/L NAC or 10 mmol/L GSH; for protection against the deleterious effects of TNF-alpha on contraction: preincubation 2-3 hours, exogenously added, 50 μM GSM
# [8] = not given; remark: listed apart in the source
# [9] = 600 mg to 1000 mg three times daily, 4 weeks
# [10] = 3-day NAC 120 mg/kg/day, 2-month post-myocardial infarction rats
# [11] = oral 1800 mg/day added to standard therapy
# [12] = in most of the subjects
# [13] = 8 days
# C3aR = target: T1, C3aR (Homo sapiens, UniProt Q16581); settings: human neutrophils; read-out: IC50 of inhibition of C3a-induced calcium mobilization
# T1 sequence (Q16581 1-482): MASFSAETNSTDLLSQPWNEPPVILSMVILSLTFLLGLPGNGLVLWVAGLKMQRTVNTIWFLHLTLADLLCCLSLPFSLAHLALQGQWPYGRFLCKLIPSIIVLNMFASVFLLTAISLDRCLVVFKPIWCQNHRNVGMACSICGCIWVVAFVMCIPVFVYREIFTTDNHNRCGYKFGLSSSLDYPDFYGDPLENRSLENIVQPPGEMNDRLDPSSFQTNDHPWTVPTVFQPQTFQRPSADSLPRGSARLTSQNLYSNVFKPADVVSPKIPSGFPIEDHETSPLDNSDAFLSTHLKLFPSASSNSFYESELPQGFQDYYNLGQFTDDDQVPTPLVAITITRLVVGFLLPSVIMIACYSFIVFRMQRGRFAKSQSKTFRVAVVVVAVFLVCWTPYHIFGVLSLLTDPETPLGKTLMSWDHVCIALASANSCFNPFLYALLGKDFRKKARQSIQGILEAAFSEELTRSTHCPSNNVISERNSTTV
# [14] = not given; remark: listed apart in the source
# [15] = 2 μg/day, 3 months
# [16] = topical, used clinically for years
# [17] = topical pretreatment
# [18] = for time detectable in serum by HPLC: rats
# [19] = six months, budesonide 800 μg/d and cholecalciferol 500 IU
# [20] = test system: C3 proteins from lower mammalian species, C4 and C5
# C3 [21] = settings: sera from cynomolgus monkeys; read-out: IC50 of haemolytic activity
# C3 [22] = settings: 10 mg/kg i.v. bolus then 60 μg/kg/min infusion
# [23] = in vivo
# [24] = test system: TNFR1-mediated activation of NF-kappa B
# [25] = in vivo; remark: listed apart in the source
# CD3 = target: T2, CD3 (Homo sapiens, UniProt P07766); settings: in vivo
# T2 construct: endogenous in cells; host or cells: T cells of type 1 diabetes patients (clinical studies reported in the literature)
# [26] = not given; remark: listed apart in the source
# [27] = not given; remark: listed apart in the source
# [28] = oral 4,000-40,000 IU/day, 28 weeks
# T2 sequence (P07766 23-207): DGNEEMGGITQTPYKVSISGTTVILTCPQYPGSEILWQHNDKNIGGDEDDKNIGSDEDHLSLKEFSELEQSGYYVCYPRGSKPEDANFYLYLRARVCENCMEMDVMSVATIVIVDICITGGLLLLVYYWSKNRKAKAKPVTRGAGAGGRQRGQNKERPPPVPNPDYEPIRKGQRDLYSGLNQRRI
# T2 sequence (P04234 22-171 partner): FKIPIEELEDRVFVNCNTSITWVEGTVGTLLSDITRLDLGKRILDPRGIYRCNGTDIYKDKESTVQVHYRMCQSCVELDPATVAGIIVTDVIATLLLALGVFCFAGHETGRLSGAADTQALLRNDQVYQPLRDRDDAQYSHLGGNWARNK
# T2 sequence (P09693 23-182 partner): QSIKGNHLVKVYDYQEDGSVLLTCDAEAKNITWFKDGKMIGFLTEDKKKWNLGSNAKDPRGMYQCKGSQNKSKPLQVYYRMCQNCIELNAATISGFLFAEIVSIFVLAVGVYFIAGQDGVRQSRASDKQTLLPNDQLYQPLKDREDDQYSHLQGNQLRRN
# T2 sequence (P20963 22-164 partner): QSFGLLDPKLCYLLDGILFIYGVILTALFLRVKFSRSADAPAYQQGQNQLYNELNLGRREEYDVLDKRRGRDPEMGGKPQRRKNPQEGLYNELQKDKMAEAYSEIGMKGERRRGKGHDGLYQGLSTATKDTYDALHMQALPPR
compound,measurement,setting,value
"C=C1/C(=C\C=C2/CCC[C@]3(C)[C@@H]([C@H](C)CCCC(C)(C)O)CC[C@@H]23)C[C@@H](O)C[C@@H]1O [1,25-(OH)2D3, 1α,25-dihydroxyvitamin D3]",development / onset of diabetes,[1],prevented
same,treated mice in which appearance of paralysis was prevented,[2],70%
same,adverse effect reported,[3],hypercalcaemia; also recorded: hypercalcemia
same,progression of arthritis and hypercalcemia,"diet, 20 ng/mouse/day",effective in inhibiting the progression of arthritis without producing hypercalcemia
same,symptoms of Lyme arthritis (B. burgdorferi infection),dietary supplementation,minimized or prevented
same,symptoms of collagen-induced arthritis,dietary supplementation,prevented
same,airway hyper-responsiveness,[4],significantly inhibited
same,serum OVA-specific IgE levels,[4],potentiated the reduction; also recorded: significant reduction
"C=C1CC[C@H](O)C/C1=C/C=C1\CCC[C@]2(C)[C@@H]([C@H](C)CCCC(C)(C)O)CC[C@@H]12 [25-OH-D3, 25-hydroxyvitamin D3]",adverse effects,"[5]; 1,000 to 40,000 IU/day",no adverse effects
same,disease progression and relapse activity,[5]; [28],not affected
same,number of new lesions assessed by MRI,[5]; [28],significant decrease
same,serum levels of 25-OH-D3 to be kept below to avoid toxicity,[6]; based on experiments in the rat,below 250 ng/ml
same,serum levels of 25-OH-D3 at which toxicity occurs,"[6]; rat, in vivo",≥ 500 ng/mL
"CC(=O)Oc1ccccc1C(=O)O [ASA, acetylsalicylic acid]",IC50,NF-kappa B translocation,~3000 µM
"N[C@@H](CCC(=O)N[C@@H](CS)C(=O)NCC(=O)O)C(=O)O [GSH, glutathione]",glutathione repletion and unmasking of TNFR2-mediated effects (reproducing in vivo NAC treatment),[7],could not reproduce
"CSC[C@H](NC(=O)CC[C@H](N)C(=O)O)C(=O)NCC(=O)O [GSM, S-methylglutathione]",solubility in water,[8],8.1 mM
same,glutathione repletion and unmasking of TNFR2-mediated effects (reproducing in vivo NAC treatment),[7],achieved
same,protection against the deleterious effects of TNF-alpha on contraction,[7],protected
"CC(=O)N[C@@H](CS)C(=O)O [NAC, N-acetyl-L-cysteine]","safety and effect on blood neutrophil GSH, airway neutrophil count and elastase activity",[9],safe and effective
same,"GSH content of the left ventricle, % of control level in sham rats",[10],75%
same,primary end points including vital capacity,[11],better
same,highest non-toxic dose,[12],800 mg/m^2/day
same,decrease of ovalbumin-specific IgE and IgG1,[13]; 0.5 g/liter in drinking water,~30%
same,decrease of ovalbumin-specific IgE and IgG1 responses,[13]; 1.0 g/liter in drinking water,more than 70%
same,glutathione repletion and unmasking of TNFR2-mediated effects (reproducing in vivo NAC treatment),[7],could not reproduce
same,protection against the deleterious effects of TNF-alpha on contraction,[7],not protected
same,cytotoxicity to resting T cells,"peripheral blood T cells; 1 mM to 20 mM, 3 days, seven donors",nontoxic
same,effect on T cell function and growth,peripheral blood T cells; 10 mM,effective enhancer of T cell function and enhancer of growth
"N=C(N)NCCCC(NC(=O)COCC(c1ccccc1)c1ccccc1)C(=O)O [SB290157, N^2-[(2,2-dipheneylethoxy)acetyl]-L-arginine]",solubility in DMSO,[8],5000 µg/mL
same,solubility in saline solution containing 5% ethanol and 10% Cremaphor-EL,[8],at least 10 mg/ml
same,IC50,C3aR,0.028 µM
same,in vivo half-life,[14],short
C=C1/C(=C\C=C2/CCC[C@]3(C)[C@@H]([C@H](C)CCCC(C)C)CC[C@@H]23)C[C@@H](O)C[C@@H]1O [alfacalcidiol],patients going into remission,[15],45%
same,patients with improvement of disease activity,[15],89%
C=C1/C(=C\C=C2/CCC[C@]3(C)[C@@H]([C@H](C)/C=C/[C@@H](O)C4CC4)CC[C@@H]23)C[C@@H](O)C[C@@H]1O [calcipotriol],systemic toxicity,[16],without systemic toxicity
same,CD4+CD25+ Tregs,[17],induced
same,antigen-specific CD8+ T cell priming,[17],abolished
same,time detectable in serum by HPLC,[18]; i.v. 10 μg/kg,up to 5 min
same,time detectable in serum by HPLC,[18]; i.v. 50 μg/kg,up to 10 min
same,half-life in circulation,"[18]; rat, in vivo",short; also recorded: very short
same,"rate of clearance, times higher than for 1,25-(OH)2D3","[18]; rat, in vivo",approximately 140 times
same,"times less effect on calcium metabolism compared to 1,25-(OH)2D3",calcium metabolism; activation of calcium absorption and bone calcium mobilization,100-200 times
same,"effects of the metabolites, times weaker than those of the parent compound",calcium metabolism; in vivo,100 times
same,solubility in ethanol,[8],approx. 50 mg/ml
same,"solubility in a 1:5 solution of ethanol:PBS, pH 7.2",[8]; pH 7.2,approx. 0.15 mg/ml
C=C1CC[C@H](O)C/C1=C/C=C1\CCC[C@]2(C)[C@@H]([C@H](C)CCCC(C)C)CC[C@@H]12 [cholecalciferol],children who experienced asthma exacerbation,[19],17%
CC[C@H](C)[C@H](N)C(=O)N[C@H]1CSSC[C@@H](C(=O)N[C@H](C(N)=O)[C@@H](C)O)NC(=O)[C@H](CCCN=C(N)N)NC(=O)[C@H](Cc2cnc[nH]2)NC(=O)[C@H](Cc2cnc[nH]2)NC(=O)CNC(=O)[C@H](Cc2c[nH]c3ccccc23)NC(=O)[C@H](CC(=O)O)NC(=O)[C@H](CCC(N)=O)NC(=O)[C@H](C(C)C)NC(=O)[C@H](C(C)C)NC1=O [compstatin],binding to C3 from lower mammalian species or to C4 and C5,[20],does not bind
same,effect in sepsis model,C3 [22],decrease the procoagulant response and to confer organ protection
O=C(O)c1ccccc1O [salicylate],levels at which tinnitus may occasionally occur,[23],≥ 95000 ng/mL
O=C(O)c1ccccc1O [salicylic acid],solubility in ethanol/water (10:90 vol),[8],21 mM
same,solubility in ethanol/water (20:80 vol),[8],35 mM
same,solubility in ethanol/water (30:70 vol),[8],81 mM
same,solubility in ethanol/water (40:60 vol),[8],277 mM
same,solubility in ethanol/water (50:50 vol),[8],526 mM
same,solubility in water,[8]; salicylic acid,14 mM
O=C([O-])c1ccccc1O.[Na+] [sodium salicylate],dose required for inhibition of TNFR1-mediated activation of NF-kappa B,[24],10 to 20 mM
Ac-Phe-[Orn-Pro-DCha-Trp-Arg] [PMX53],half-life,[25],1.17 h
Otelixizumab: Fc-mutated anti CD3 mAb,clinical efficacy in phase III studies,CD3,failed to show clinical efficacy
R121D/Y124D: human IL-4 double mutant antagonizing IL-4 and IL-13,cutaneous wheal response and circulating allergen-specific IgE,"IL-4 and IL-13; subcutaneous, 6 weeks or more",reduced
same,allergen-induced airways hyper-responsiveness,IL-4 and IL-13; subcutaneously or via nebulisation,protect
TFGLQLELT [nonapeptide 180-188],rats showing clinical symptoms of adjuvant arthritis during pretreatment period,[26]; i.p. 100 μg in FIA,none of the rats
same,rats completely protected against subsequently induced adjuvant arthritis,[26]; three times 100 μg in FIA,11 out of 16
Teplizumab: humanized anti CD3 mAb mutated to prevent binding to Fc receptors,clinical efficacy in phase III studies,CD3,failed to show clinical efficacy
vitamin D,relative risk of type 1 diabetes over the subsequent 30 years,[27]; doses of exactly 50 μg/day,0.22
same,relative risk of type 1 diabetes over the subsequent 30 years,"[27]; regular, doses of over 50 μg/day (2000 IU/d)",0.14
same,relative risk of developing type 1 diabetes,[27]; supplements given irregularly,0.16
same,relative risk of developing type 1 diabetes,[27]; supplements given regularly,0.12
